PubChem BioAssay AID206 (DTP/NCI, 2004)
Values joined by “and” are separate entries in the source; they are usually repeats but may differ in a detail not shown here. Equal values may be shown once. Inconclusive results are not listed.

Test system: nude mice, HT29 intrarenal xenograft, tumor weight T/C
Experiment: NCI In Vivo Anticancer Drug Screen. Data for tumor model HT29;CX-1 Human Adenocarcinoma (MER+) (intrarenal inoculation) in NU/NU Swiss (nude) mice
Settings: endpoint: mean tumor weight change, higher = larger tumour
Procedure, shortened: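 T/C = treated-group value ÷ vehicle-group value, using tumor size or survival.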

[1] = dose: 8.0 mg/kg/injection, schedule: Q04DX004 (sc), vehicle: saline
[2] = dose: 16.0 mg/kg/injection, schedule: Q04DX004 (sc), vehicle: saline
[3] = dose: 25.0 mg/kg/injection, schedule: Q01DX010 (sc), vehicle: saline
[4] = dose: 100.0 mg/kg/injection, schedule: Q01DX010 (sc), vehicle: saline

## Cc1c(N)nc(C(CC(N)=O)NCC(N)C(N)=O)nc1C(=O)NC(C(=O)NC(C)C(O)CC(=O)NC(C(=O)NC(OC1OC(C)C(N)C(O)C1O)C(O)c1nc(-c2nc(C(=O)NCCCC(N)CC(=O)NCCCNCCCCN)cs2)cs1)C(C)O)C(OC1OC(CO)C(O)C(O)C1OC1OC(CO)C(O)C(OC(N)=O)C1O)c1cnc[nH]1 (centres undefined)
[1]
  T/C: 17 % of control
[2]
  T/C: 21 % of control

## CC(=O)N(C)O
dose: 150.0 mg/kg/injection, schedule: Q04DX004 (sc), vehicle: saline with Tween-80
  T/C: 88 % of control
dose: 300.0 mg/kg/injection, schedule: Q04DX004 (sc), vehicle: saline with Tween-80
  T/C: 71 % of control
dose: 600.0 mg/kg/injection, schedule: Q04DX004 (sc), vehicle: saline with Tween-80
  T/C: 45 % of control

## ClCC[N+]12CC[N+](CCCl)(CC1)C2
dose: 50.0 mg/kg/injection, schedule: Q01DX010 (sc), vehicle: saline with Tween-80
  T/C: 37 % of control
dose: 75.0 mg/kg/injection, schedule: Q04DX004 (sc), vehicle: water
  T/C: 101 % of control
dose: 100.0 mg/kg/injection, schedule: Q01DX010 (sc), vehicle: saline with Tween-80
  T/C: 90 % of control
dose: 150.0 mg/kg/injection, schedule: Q04DX004 (sc), vehicle: water
  T/C: 107 % of control
dose: 200.0 mg/kg/injection, schedule: Q01DX010 (sc), vehicle: saline with Tween-80
  T/C: 96 % of control
dose: 300.0 mg/kg/injection, schedule: Q04DX004 (sc), vehicle: water
  T/C: 98 % of control and 101 % of control
dose: 600.0 mg/kg/injection, schedule: Q04DX004 (sc), vehicle: water
  T/C: 43 % of control

## CNC(=O)ON(C(C)=O)C(=O)NC
[3]
  T/C: 75 % of control
dose: 50.0 mg/kg/injection, schedule: Q01DX010 (sc), vehicle: saline
  T/C: 109 % of control
dose: 50.0 mg/kg/injection, schedule: Q04DX004 (sc), vehicle: saline
  T/C: 34 % of control
[4]
  T/C: 13 % of control
dose: 100.0 mg/kg/injection, schedule: Q04DX004 (sc), vehicle: suspension in saline
  T/C: 116 % of control
dose: 150.0 mg/kg/injection, schedule: Q04DX004 (sc), vehicle: suspension in saline
  T/C: 114 % of control
dose: 200.0 mg/kg/injection, schedule: Q04DX004 (sc), vehicle: suspension in saline
  T/C: 57 % of control
dose: 250.0 mg/kg/injection, schedule: Q04DX004 (sc), vehicle: suspension in saline
  T/C: 18 % of control

## COC1=C2C[C@@H](C)C[C@@H](OC)[C@@H](O)[C@H](C)/C=C(\C)[C@@H](OC(N)=O)[C@H](OC)/C=C\C=C(/C)C(=O)NC(=CC1=O)C2=O
dose: 2.0 mg/kg/injection, schedule: Q04DX004 (sc), vehicle: saline
  T/C: 110 % of control
dose: 4.0 mg/kg/injection, schedule: Q04DX004 (sc), vehicle: saline
  T/C: 113 % of control
[1]
  T/C: 54 % of control
[2]
  T/C: 59 % of control

## CCC12C[N+]3([O-])CCc4c([nH]c5ccccc45)C(C(=O)OC)(c4cc5c(cc4OC)N(C)C4C(O)(C(=O)OC)C(OC(C)=O)C6(CC)C=CCN7CCC54C76)CC(C3)C1O2 (centres undefined)
dose: 20.0 mg/kg/injection, schedule: Q04DX004 (sc), vehicle: water
  T/C: 81 % of control
dose: 40.0 mg/kg/injection, schedule: Q04DX004 (sc), vehicle: water
  T/C: 60 % of control
dose: 80.0 mg/kg/injection, schedule: Q04DX004 (sc), vehicle: water
  T/C: 85 % of control
dose: 160.0 mg/kg/injection, schedule: Q04DX004 (sc), vehicle: water
  T/C: 71 % of control

## C=CC(=O)NCNC(=O)C=C
[3]
  T/C: 217 % of control and 220 % of control
[4]
  T/C: 213 % of control

## CCCCCCCC(=O)OCC(=O)[C@]1(O)Cc2c(O)c3c(c(O)c2[C@@H](OC2CC(N)C(O)C(C)O2)C1)C(=O)c1c(OC)cccc1C3=O (some centres undefined)
dose: 2.0 mg/kg/injection, schedule: Q04DX004 (sc), vehicle: suspension in saline
  T/C: 90 % of control
dose: 4.0 mg/kg/injection, schedule: Q01DX010 (sc), vehicle: suspension in saline
  T/C: 222 % of control
dose: 4.0 mg/kg/injection, schedule: Q04DX004 (sc), vehicle: suspension in saline
  T/C: 50 % of control
dose: 5.0 mg/kg/injection, schedule: Q04DX004 (sc), vehicle: suspension in saline
  T/C: 106 % of control
dose: 8.0 mg/kg/injection, schedule: Q01DX010 (sc), vehicle: suspension in saline
  T/C: 67 % of control
dose: 8.0 mg/kg/injection, schedule: Q04DX004 (sc), vehicle: suspension in saline
  T/C: 42 % of control
dose: 10.0 mg/kg/injection, schedule: Q04DX004 (sc), vehicle: suspension in saline
  T/C: 29 % of control
dose: 16.0 mg/kg/injection, schedule: Q04DX004 (sc), vehicle: suspension in saline
  T/C: 33 % of control
dose: 20.0 mg/kg/injection, schedule: Q04DX004 (sc), vehicle: suspension in saline
  T/C: 42 % of control

## Cc1cc(Nc2ccc3c(c2)OCO3)c2cc3c(cc2n1)OCO3
dose: 300.0 mg/kg/injection, schedule: Q04DX004 (sc), vehicle: Klucel (hydroxypropylcellulose) (HPC)
  T/C: 79 % of control
dose: 600.0 mg/kg/injection, schedule: Q04DX004 (sc), vehicle: Klucel (hydroxypropylcellulose) (HPC)
  T/C: 198 % of control

## COC(=O)[C@@]12OC[C@]34[C@H]([C@@H](O)[C@@H]1O)[C@@]1(C)CC(=O)C(O)=C(C)[C@@H]1C[C@H]3OC(=O)[C@H](OC(=O)/C=C(\C)C(C)C)[C@@H]24
dose: 0.25 mg/kg/injection, schedule: Q04DX004 (sc), vehicle: saline + alcohol
  T/C: 67 % of control
dose: 0.5 mg/kg/injection, schedule: Q04DX004 (sc), vehicle: saline with Tween-80
  T/C: 83 % of control
dose: 1.0 mg/kg/injection, schedule: Q04DX004 (sc), vehicle: saline + alcohol
  T/C: 49 % of control and 62 % of control
dose: 1.0 mg/kg/injection, schedule: Q04DX004 (sc), vehicle: saline with Tween-80
  T/C: 89 % of control
dose: 2.0 mg/kg/injection, schedule: Q04DX004 (sc), vehicle: saline + alcohol
  T/C: 53 % of control and 65 % of control
dose: 4.0 mg/kg/injection, schedule: Q04DX004 (sc), vehicle: saline + alcohol
  T/C: 72 % of control

## CC1(C)OC1CS(=O)c1ccccc1 (centres undefined)
dose: 200.0 mg/kg/injection, schedule: Q04DX004 (sc), vehicle: saline with Tween-80
  T/C: 61 % of control
dose: 400.0 mg/kg/injection, schedule: Q04DX004 (sc), vehicle: saline with Tween-80
  T/C: 117 % of control
dose: 800.0 mg/kg/injection, schedule: Q04DX004 (sc), vehicle: saline with Tween-80
  T/C: 94 % of control

## O=C(O)CC(=O)O.[NH-]CC[NH-].[Pt+2]
dose: 25.0 mg/kg/injection, schedule: Q01DX010 (sc), vehicle: dextrose
  T/C: 29 % of control
dose: 50.0 mg/kg/injection, schedule: Q01DX010 (sc), vehicle: dextrose
  T/C: 41 % of control

## CCCCCCCCNc1cc2c3c(c1)CCCN3CCC2
dose: 3.0 mg/kg/injection, schedule: Q04DX004 (sc), vehicle: Klucel (hydroxypropylcellulose) (HPC)
  T/C: 69 % of control
dose: 6.0 mg/kg/injection, schedule: Q04DX004 (sc), vehicle: Klucel (hydroxypropylcellulose) (HPC)
  T/C: 103 % of control
dose: 12.0 mg/kg/injection, schedule: Q04DX004 (sc), vehicle: Klucel (hydroxypropylcellulose) (HPC)
  T/C: 73 % of control

## O=c1[nH]c(=O)n(C2OC(CO)C(O)C2O)cc1F (centres undefined)
dose: 4.69 mg/kg/injection, schedule: Q04DX004 (sc), vehicle: saline
  T/C: 34 % of control

## COc1cc(OC)c(OC)cc1/C=C\c1ccnc2ccccc12
dose: 225.0 mg/kg/injection, schedule: Q04DX004 (sc), vehicle: Klucel (hydroxypropylcellulose) (HPC)
  T/C: 79 % of control
dose: 450.0 mg/kg/injection, schedule: Q04DX004 (sc), vehicle: Klucel (hydroxypropylcellulose) (HPC)
  T/C: 110 % of control
dose: 900.0 mg/kg/injection, schedule: Q04DX004 (sc), vehicle: Klucel (hydroxypropylcellulose) (HPC)
  T/C: 83 % of control
dose: 1800.0 mg/kg/injection, schedule: Q04DX004 (sc), vehicle: Klucel (hydroxypropylcellulose) (HPC)
  T/C: 67 % of control

## COc1cccc2c1C(=O)c1c(O)c3c(c(O)c1C2=O)C[C@@](O)(/C(C)=N/NC(=O)c1ccccc1)C[C@@H]3OC1CC(N)C(O)C(C)O1 (some centres undefined)
dose: 18.75 mg/kg/injection, schedule: Q04DX004 (sc), vehicle: water
  T/C: 117 % of control
dose: 37.5 mg/kg/injection, schedule: Q04DX004 (sc), vehicle: water
  T/C: 123 % of control

## COc1cc2cc[n+](C)c(Cc3ccccc3)c2cc1OC
dose: 18.75 mg/kg/injection, schedule: Q04DX004 (sc), vehicle: Klucel (hydroxypropylcellulose) (HPC)
  T/C: 73 % of control
dose: 37.5 mg/kg/injection, schedule: Q04DX004 (sc), vehicle: Klucel (hydroxypropylcellulose) (HPC)
  T/C: 108 % of control
dose: 75.0 mg/kg/injection, schedule: Q04DX004 (sc), vehicle: Klucel (hydroxypropylcellulose) (HPC)
  T/C: 54 % of control

## O=C(CCBr)N1CCN(C(=O)CCBr)CC1
dose: 12.5 mg/kg/injection, schedule: Q01DX010 (sc), vehicle: Klucel (hydroxypropylcellulose) (HPC)
  T/C: 71 % of control
dose: 25.0 mg/kg/injection, schedule: Q01DX010 (sc), vehicle: Klucel (hydroxypropylcellulose) (HPC)
  T/C: 64 % of control

## COC1CC(CC2CCC(C)C(C(C)C(=O)O)O2)OC2(OC(C)(C3CCC(C)(C4OC(C5OC(O)(CO)C(C)CC5C)CC4C)O3)CC2C)C1C (centres undefined)
dose: 3.75 mg/kg/injection, schedule: Q04DX004 (sc), vehicle: Klucel (hydroxypropylcellulose) (HPC)
  T/C: 34 % of control
dose: 7.5 mg/kg/injection, schedule: Q04DX004 (sc), vehicle: Klucel (hydroxypropylcellulose) (HPC)
  T/C: 107 % of control
